According to publication PMC4823124, “Selective targeting of BCL6 induces oncogene addiction switching to BCL2 in B-cell lymphoma” (Oncotarget, 2015):

How the values were obtained:
OCI-Ly1 cells = assay: Cell viability of OCI-Ly1 cells transfected with siRNA and treated with ABT-737; format: cell-based; settings: ABT-737 250 nM for 72 h
Method: DLBCL cells (3 × 10^6 to 5 × 10^6) were transfected with 1 micromolar siRNA for BCL6 (siBCL6-1 HSS100968 Life Technologies, siBCL6-2 SI00311129 Qiagen, siBCL6-3 SI0031143 Qiagen and siBCL6-4 SI0031150 Qiagen) or control (GFP targeting siRNA) using 96-well electroporation (SF buffer, Lonza).
Cells were grown on U-bottom 96-well plates at respective concentrations sufficient to keep untreated cells under exponential growth by the time of read-out after treatment. Cells were exposed to each drug alone and to the combination of both drugs on the same plate in 48 h experiments. In sequential experiments, compounds were added 48 h apart in 72 h experiments. Cell viability was then determined using a fluorometric assay based on the resazurin reduction activity of the cells (Cell Titer Blue, Promega) and confirmed by trypan blue dye-exclusion (Sigma). Fluorescence was determined for controls and three replicates per treatment condition using the Synergy4 microplate reader (BioTek). Standard curves were obtained for each individual cell line with the cell count and fluorescence values. The number of viable cells was obtained using the least-squares regression method of the standard curve and by doing a ratiometric quantification of viable cells normalized to the respective controls. […] A cell killing effect was calculated as the 1 — normalized viability value.

OCI-Ly4 = assay: Cell viability, RI-BPI, ABT-737 or combination; format: cell-based; settings: BCL6-independent GCB-DLBCL cell line OCI-Ly4; 48 h; quintuplicates
Method: Cells were grown on U-bottom 96-well plates at respective concentrations sufficient to keep untreated cells under exponential growth by the time of read-out after treatment. Cells were exposed to each drug alone and to the combination of both drugs on the same plate in 48 h experiments. In sequential experiments, compounds were added 48 h apart in 72 h experiments. Cell viability was then determined using a fluorometric assay based on the resazurin reduction activity of the cells (Cell Titer Blue, Promega) and confirmed by trypan blue dye-exclusion (Sigma). […] Standard curves were obtained for each individual cell line with the cell count and fluorescence values. The number of viable cells was obtained using the least-squares regression method of the standard curve and by doing a ratiometric quantification of viable cells normalized to the respective controls. […] A cell killing effect was calculated as the 1 — normalized viability value.
(§1) www.impactjournals.com/oncotarget/ Oncotarget, Supplementary Materials 2015
Supplementary Figure S2: Baseline features of DLBCL cells responsive and resistant to RI-BPI. A. Baseline features of
RI-BPI sensitive (S) and resistant (R) groups of DLBCL cells according to cell-of-origin (COO) classification into GCB and ABC groups,
the presence of BCL6 translocation (3q27) and BCL2 mutation (including amplification and translocation). […]

DoHH2 = assay: Growth inhibition (GI50); format: cell-based; settings: 48 h, resazurin reduction
Method: (§2) Cells were grown on U-bottom 96-well plates at respective concentrations sufficient to keep untreated cells under exponential growth by the time of read-out after treatment. Cells were exposed to each drug alone and to the combination of both drugs on the same plate in 48 h experiments. In sequential experiments, compounds were added 48 h apart in 72 h experiments. Cell viability was then determined using a fluorometric assay based on the resazurin reduction activity of the cells (Cell Titer Blue, Promega) and confirmed by trypan blue dye-exclusion (Sigma). Fluorescence was determined for controls and three replicates per treatment condition using the Synergy4 microplate reader (BioTek). Standard curves were obtained for each individual cell line with the cell count and fluorescence values. The number of viable cells was obtained using the least-squares regression method of the standard curve and by doing a ratiometric quantification of viable cells normalized to the respective controls. Experiments were conducted in triplicates. A cell killing effect was calculated as the 1 — normalized viability value.

OCI-Ly7 = assay: Growth inhibition (GI50); format: cell-based; settings: OCI-Ly7 (harbors a BCL2 deletion); Figure 2A, for ABT-737 also ref 14
Method: as §2

SC-1 = assay: Growth inhibition (GI50); format: cell-based; settings: 48 h, resazurin reduction
Method: as §2

SU-DHL4 = assay: Growth inhibition (GI50); format: cell-based; settings: 48 h, resazurin reduction
Method: as §2

SU-DHL6 = assay: Growth inhibition (GI50); format: cell-based; settings: 48 h, resazurin reduction
Method: as §2

[1] = test system: BCL2 independent DLBCL cells; assay: Dose reduction index, sequential RI-BPI then BH3 mimetic; format: cell-based; settings: pre-treated 48 h with RI-BPI, sequential 72 h; all but one (SU-DHL8) of the BCL2 independent DLBCL cell lines, including OCI-Ly7
Method: as §2

OCI-Ly1 xenografts = assay: OCI-Ly1 xenograft tumor growth; format: in vivo; settings: OCI-Ly1 xenografts in SCID mice, i.p. 10 days; RI-BPI 25 mg/kg/day, ABT-737 50 mg/kg/day, bortezomib 0.3 mg/kg/day, MLN4924 15 mg/kg every 12 h; p<0.05, T-test
Method: (§3) For these experiments OCI-Ly1 and OCI-Ly7 cells were injected in the right flank of SCID mice (n = 80 for each cell line) and tumor growth was allowed until reaching a volume of 75 - 100 mm^3. […] Tumor growth was measured every day during the 10-day treatment course and the area under the curve (AUC) was calculated.
(§4) Mouse xenografts: Animal procedures followed NIH protocols and were approved by the Animal Institute Committee of the Weill Cornell College or Medicine. SCID mice were subcutaneously injected on the right flank with GCB-DLBCL cell lines OCI-Ly1, OCI-Ly7 and SU-DHL6. Tumor volumes were monitored every day using electronic calipers (Fischer Scientific). When tumor reached a palpable size (around 75 to 100 mm^3) animals were randomized into 8 groups of 10 mice (or four groups of 5 mice for SU-DHL6 xenografts) and treated intraperitoneally accordingly to the schedule and doses shown in Figure 5A. In combinatorial treatments, mice were injected with RI-BPI (or vehicle) alone the first day followed by the combination the subsequent days. We used the area-under-the-curve (AUC) as the quantitative metric to represent the evolution of tumor volume over the time frame (10 – 13 days) of the experiment. The comparisons between treated and control mice were done using MANOVA followed by pair-wise comparison using the two-tailed T-test or Mann Whitney test for SU-DHL6 mice. Rat pharmacokinetic: Animal procedures followed NIH protocols and were conducted by Calvert Laboratories (study 0835RM44.001, Scott Township, PA). Briefly, male Sprague=Dawley rats (n = 3) were injected intravenously with 10 mg/kg of RI-BPI in sterile 50% water:50% saline and whole blood samples were collected through a jugular vein catheter at several time-points. Derived plasma samples were analyzed by HPLC-UV to determine RI-BPI concentration. Pharmacokinetic parameters were estimated using a non-compartmental approach consistent with the route of administration. The AUC that describe the total exposure to RI-BPI was estimated with the linear trapezoidal method and used to derive in vitro exposure doses.

[2] = test system: BCL6-dependent GCB-DLBCL cells; assay: Growth inhibition (GI50), panel of BCL6-dependent GCB-DLBCL cells; format: cell-based; settings: 6 cell lines of the GCB-DLBCL panel; single agent
Method: as §2

[3] = test system: BCL6-dependent GCB-DLBCL cell lines; assay: Dose reduction index, MLN4924 or bortezomib after RI-BPI; format: cell-based; settings: 8 BCL6-dependent GCB-DLBCL cell lines pre-treated with RI-BPI; all the cell lines tested
Method: as §2

NOXA = NOXA immunoblot; format: cell-based; settings: SU-DHL6 and OCI-Ly1 cells, 24 h
Method: (§5) Cell pellets containing 5 × 10^6 cells were washed with ice-cold phosphate buffer saline and lysed with RIPA buffer (Tris-HCl 50mM, NaCl, 150 mM, NP-40 1%, Sodium Deoxylcholate 0.25%, SDS 0.1%), and fresh protease inhibitor cocktail (Roche) was added. Protein concentration in lysates was determined by BCA assay (Pierce) and 15 μg of protein sample were loaded on polyacrylamide electrophoresis pre-cast gels (BioRad). PVDF membranes were blocked with 5% non-fat dry milk (Blotting buffer, BioRad). Experiments were conducted at least in independent triplicates. Densitometry analysis was performed using ImageJ. We used the following primary antibodies: mouse anti-BCL6 (SC-7388, Santa Cruz), rabbit anti-BCL2 (SC-7382, Santa Cruz), rabbit anti-MCL1 (SC-819, Santa Cruz), rabbit anti-BIM (2933S, Cell Signaling Technologies), rabbit anti-BLC-XL (2764S, Cell Signaling Technologies), mouse anti-GAPDH (ab8245, Abcam), rabbit anti-NOXA (Santa Cruz), mouse anti-tubulin (T9026, Sigma-Aldrich), rabbit anti-BMF (ab181148, Abcam) and rabbit anti-caspase 9 (9502, Cell Signaling Technologies).

BMF = BMF immunoblot; format: cell-based; settings: SU-DHL6 cells
Method: as §5

NFkB (p50, p52, p65) = assay: NFkB DNA-binding activity assay (TransAM), HBL-1 cells; format: cell-based; settings: HBL-1 (ABC-DLBCL) cells; drug at GI50 for 24 h; decreased almost completely
Method: The DNA-binding capacity of NFkB (p50, p52, c-Rel, Rel-B and p65) was assayed by a plate-based assay (TransAM, Active Motif, Carlsbad) following the manufacturer instructions. Briefly, 5×10^6 GCB-DLBCL cells were treated with vehicle, bortezomib or MLN4924 and 10 μg of nuclear lysates were added to the wells containing pre-adsorbed NFkB consensus or competitor (mutant) oligonucleotides. HBL-1 cells (ABC-DLBCL) were used as positive controls for the assay. After incubation and washing, primary anti-NFkB antibody was added to each well, followed by HPR-anti-rabbit secondary antibody. After HRP substrate addition, absorbance was read at 450 nm with a reference wavelength of 655 nm (Synergy4, Biotek). In this assay the absorbance is directly proportional to the quantity of DNA-bound transcription factor present in the sample. Experiments were carried out in four replicates. Results were expressed as mean absorbance values with SEM to mutant probe. P-values were obtained by two-tailed T-test.

OCI-Ly7 xenografts = assay: OCI-Ly7 xenograft tumor growth; format: in vivo, SCID mice; settings: p<0.05, T-test; for tumor growth at day 10 (AUC of tumor volume) vs vehicle: OCI-Ly7 xenografts in SCID mice, i.p. 10 days, RI-BPI 25 mg/kg/day, obatoclax 2 mg/kg/day, bortezomib 0.3 mg/kg/day, MLN4924 15 mg/kg every 12 h
Method: as §3, §4

[4] = for MPV: C57BL/6 mice, i.p., schedule and doses of xenograft mice (RI-BPI 25, obatoclax 2, bortezomib 0.3 mg/kg/day, MLN4924 15 mg/kg every 12 h), vehicle 6.7
Excerpt: as §1
Hematological and biochemical parameters of C57BL/6 mice treated with the schedule and doses of OCI-Ly1 and OCI-Ly7

NFkB (p50) = assay: NFkB DNA-binding activity assay (TransAM), OCI-Ly1 cells; format: cell-based; settings: drug at GI50 for 24 h, only p50 changed
OCI-Ly1 lymphoma tissues = assay: TUNEL assay of xenografted lymphoma tissues; format: in vivo, SCID mice; settings: post-treatment OCI-Ly1 lymphoma tissues; Mann-Whitney p = 0.0004 (RI-BPI), 0.002 (obatoclax), 0.0008 (bortezomib)
Method: DNA fragmentation coupled to the apoptotic response was detected in morphologically identifiable nuclei and apoptotic bodies present in formalin-fixed paraffin-embedded tumors by the TUNEL assay (ApopTag, Chemicon, Temecula, California) following the manufacturer's instructions. Tissue slides were pre-treated with 0.5% trypsin for 15 minutes (Zymed, San Francisco, California), to improve the exposure of DNA.

Compound: CN(C)CC[C@H](CSc1ccccc1)Nc1ccc(S(=O)(=O)NC(=O)c2ccc(N3CCN(Cc4ccccc4-c4ccc(Cl)cc4)CC3)cc2)cc1[N+](=O)[O-] [ABT-737]
- loss of viability (OCI-Ly1 cells; OCI-Ly1 transfected with BCL6 siRNA, BCL6 knockdown alone 68%, p < 0.03, T-test): 97%
- cells killed (loss of viability) (OCI-Ly1 cells; OCI-Ly1 transfected with control siRNA): 57%
- sensitization to RI-BPI by pre-treatment with ABT-737 (OCI-Ly4): failed to sensitize
- sensitivity as single agent (GI50) (DoHH2): sensitive
- sensitivity as single agent (GI50) (OCI-Ly7): highly resistant
- sensitivity as single agent (GI50) (SC-1): sensitive
- sensitivity as single agent (GI50) (SU-DHL4): sensitive
- sensitivity as single agent (GI50) (SU-DHL6): sensitive
- sensitivity to BH3 mimetic after RI-BPI treatment (dose reduction index) [1]: gained sensitivity
- tumor growth at day 10 (AUC of tumor volume) vs vehicle (OCI-Ly1 xenografts): significantly reduced

Compound: NS(=O)(=O)OC[C@@H]1C[C@@H](n2ccc3c(N[C@H]4CCc5ccccc54)ncnc32)C[C@@H]1O [MLN4924]
- GI50 [2]: > 100 nM
- enhancement of response to RI-BPI (dose reduction index) [3]: favorable DRIs
- NOXA protein levels (NOXA): significant stabilization of NOXA
- BMF protein levels (BMF): increased
- NFκB activation (DNA binding of p50, p52 and p65) (NFkB (p50, p52, p65)): decreased
- tumor growth at day 10 (AUC of tumor volume) vs vehicle (OCI-Ly1 xenografts): significantly reduced
- tumor growth at day 10 (AUC of tumor volume) vs vehicle (OCI-Ly7 xenografts): significantly reduced
- MPV [4]: 6.5 fL

Compound: CC(C)C[C@H](NC(=O)[C@H](Cc1ccccc1)NC(=O)c1cnccn1)B(O)O [bortezomib]
- sensitivity as single agent (GI50) (SC-1): resistant
- sensitivity as single agent (GI50) (SU-DHL4): resistant
- enhancement of response to RI-BPI (dose reduction index) [3]: favorable DRIs
- NOXA protein levels (NOXA): significant stabilization of NOXA
- NFκB activation (DNA binding of p50, p52 and p65) (NFkB (p50, p52, p65)): decreased
- NFκB activation (DNA binding of p50) (NFkB (p50)): mild decrease
- tumor growth at day 10 (AUC of tumor volume) vs vehicle (OCI-Ly1 xenografts): significantly reduced
- tumor growth at day 10 (AUC of tumor volume) vs vehicle (OCI-Ly7 xenografts): significantly reduced
- single-agent efficacy compared between drugs (OCI-Ly7 xenografts; OCI-Ly7 xenografts): more effective than obatoclax
- MPV [4]: 6.6 fL
- toxicity by body weight follow-up, plasma hematology and biochemistry parameters ([4]; mouse, in vivo): mild monocytosis and AST increase
- percent of apoptotic nuclei (TUNEL) vs vehicle control (OCI-Ly1 lymphoma tissues): significantly increased

Compound: COC1=CC(c2cc3ccccc3[nH]2)=N/C1=C\c1[nH]c(C)cc1C [obatoclax]
- sensitivity as single agent (GI50) (DoHH2): sensitive
- sensitivity as single agent (GI50) (OCI-Ly7): highly resistant
- sensitivity as single agent (GI50) (SC-1): sensitive
- sensitivity as single agent (GI50) (SU-DHL4): sensitive
- sensitivity as single agent (GI50) (SU-DHL6): sensitive
- sensitivity to BH3 mimetic after RI-BPI treatment (dose reduction index) [1]: gained sensitivity
- tumor growth at day 10 (AUC of tumor volume) vs vehicle (OCI-Ly7 xenografts): significantly reduced
- MPV [4]: 6.4 fL
- percent of apoptotic nuclei (TUNEL) vs vehicle control (OCI-Ly1 lymphoma tissues): significantly increased
